# Assay results as given in patent publication US20240382629A1, “HETEROBIVALENT AND HOMOBIVALENT AGENTS TARGETING FIBROBLAST ACTIVATION PROTEIN ALPHA AND/OR PROSTATE-SPECIFIC MEMBRANE ANTIGEN” (The Johns Hopkins University, priority 2021, published 2024).
# Like-named read-outs stand apart in the source and are kept apart here.
# Assays:
# SK-MEL-24 tumor = experiment: PET imaging and biodistribution in SK-MEL-24 tumor-bearing mice; format: in vivo, mouse; conditions: SK-MEL-24 in NSG mice, 20 μCi, in %ID/g
# Method: (§1) Cell uptake assays, flow cytometry, and IHC were performed as described previously. Banerjee et al., 2019; Nimmagadda et al., 2018. PET imaging and biodistribution Sequential PET imaging and biodistribution studies were conducted to quantify and validate PET imaging data. Briefly, tumor-bearing mice were administrated approximately 7.4 MBq of radiotracer in 150 μL saline via tail-vein injection. They were randomized into the indicated groups of 3-4 mice before radiotracer injection.
# (§2) In Experiment 2, SK-MEL-24 tumor-bearing mice (n=3-4) were investigated.
# (§3) Dose: 20 μCi, n=3 at 1 h and n=4 at 2 and 4 h per group, Tumor model: SK-MEL-24 in NSG mice
# [1] = as above; format: in vivo, mouse; conditions: mouse, intravenous, SK-MEL-24 in NSG mice, 20 μCi; for tissue uptake at 1 h: n=3
# Method: as §1, §2, §3
# PREP = PREP (Homo sapiens (Human), UniProt P48147); experiment: PREP inhibition assay (recombinant enzyme, Z-Gly-Pro-AMC substrate); format: biochemical; conditions: for IC50: Table 4
# Method: (§4) PSMA binding affinities of the compounds were determined using a competitive inhibition assay as previously reported. […] FAP, prolyl endopeptidase (PREP), and […] (DPPIV) inhibition assays: Recombinant enzymes (FAP, PREP, DPPIV) were purchased from R&D Systems (Minneapolis, MN). […] Z-Gly-Pro-AMC was used as a substrate for FAP and PREP. H-Gly-Pro-AMC was used as a substrate for DPPIV. The recombinant enzyme (0.4 μg/mL) was incubated with varying amounts of the test articles in the presence of the designated substrate (80 μM) for 10 min at room temperature. Fluorescence intensity was measured with 380 nm excitation and 460 nm emission using the Cytation 5 Cell Imaging Multi-Mode Reader (BioTek, Winooski, VT). IC50 and Ki values were obtained using a sigmoidal dose-response function.
# FAP = FAP (Homo sapiens (Human), UniProt Q12884); experiment: FAP inhibition assay (recombinant enzyme, Z-Gly-Pro-AMC substrate); format: biochemical
# Method: as §4
# DPPIV = DPPIV (Homo sapiens (Human), UniProt P27487); experiment: DPPIV inhibition assay (recombinant enzyme, H-Gly-Pro-AMC substrate); format: biochemical; conditions: for IC50: Table 4, read-out: DPPIV IC50
# Method: as §4
# MDA-MB-231 = experiment: Biodistribution in MB-MDA-231 NSG mice; format: in vivo, mouse; design: Biodistribution: Spleen / Biodistribution: Fat / Biodistribution: Kidney / Biodistribution: Muscle / Biodistribution: Small Intestine / Biodistribution: Salivary Gland / Biodistribution: Lacrimal gland / Biodistribution: Bladder / Biodistribution: Bone / Biodistribution: MDA-MB-231 / Biodistribution: Blood / Biodistribution: Heart / Biodistribution: Lung / Biodistribution: Liver / Biodistribution: Stomach: unit not given here
# PSMA = PSMA (Homo sapiens (Human), UniProt Q04609); experiment: PSMA competitive inhibition assay (NAAG substrate, LNCaP cell lysate); format: biochemical
# Method: as §4
# FAP+ HT-1080 tumors = experiment: Small animal PET/CT of ^68Ga-labeled SB-FAP-01 in FAP+ HT-1080 and wild type tumors; format: in vivo; conditions: 60 minutes after intravenous administration
# Method: Small animal PET/CT imaging was performed at 60 minutes after intravenous administration to this mirroring experimental model; and […]
# Sequence of PSMA (Q04609 whole entry): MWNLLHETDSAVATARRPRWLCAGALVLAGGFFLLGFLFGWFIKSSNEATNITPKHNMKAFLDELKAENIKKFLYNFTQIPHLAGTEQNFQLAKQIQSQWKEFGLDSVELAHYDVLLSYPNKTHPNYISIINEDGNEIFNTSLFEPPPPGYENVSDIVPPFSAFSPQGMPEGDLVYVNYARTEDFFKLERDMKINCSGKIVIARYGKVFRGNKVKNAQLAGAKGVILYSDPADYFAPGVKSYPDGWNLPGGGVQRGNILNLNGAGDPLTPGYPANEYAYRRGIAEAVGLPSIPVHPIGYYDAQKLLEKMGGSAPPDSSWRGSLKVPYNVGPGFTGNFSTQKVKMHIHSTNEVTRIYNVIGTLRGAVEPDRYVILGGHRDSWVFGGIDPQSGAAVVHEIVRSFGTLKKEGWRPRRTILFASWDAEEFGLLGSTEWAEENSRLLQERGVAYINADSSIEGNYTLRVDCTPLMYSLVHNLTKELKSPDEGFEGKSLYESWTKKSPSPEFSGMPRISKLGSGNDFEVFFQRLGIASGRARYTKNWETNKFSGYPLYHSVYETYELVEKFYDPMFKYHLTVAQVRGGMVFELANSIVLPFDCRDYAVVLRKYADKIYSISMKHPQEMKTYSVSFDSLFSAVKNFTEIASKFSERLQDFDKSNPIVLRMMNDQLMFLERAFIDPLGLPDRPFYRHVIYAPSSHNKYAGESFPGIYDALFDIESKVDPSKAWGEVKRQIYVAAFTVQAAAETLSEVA
# Sequence of PREP (P48147 whole entry): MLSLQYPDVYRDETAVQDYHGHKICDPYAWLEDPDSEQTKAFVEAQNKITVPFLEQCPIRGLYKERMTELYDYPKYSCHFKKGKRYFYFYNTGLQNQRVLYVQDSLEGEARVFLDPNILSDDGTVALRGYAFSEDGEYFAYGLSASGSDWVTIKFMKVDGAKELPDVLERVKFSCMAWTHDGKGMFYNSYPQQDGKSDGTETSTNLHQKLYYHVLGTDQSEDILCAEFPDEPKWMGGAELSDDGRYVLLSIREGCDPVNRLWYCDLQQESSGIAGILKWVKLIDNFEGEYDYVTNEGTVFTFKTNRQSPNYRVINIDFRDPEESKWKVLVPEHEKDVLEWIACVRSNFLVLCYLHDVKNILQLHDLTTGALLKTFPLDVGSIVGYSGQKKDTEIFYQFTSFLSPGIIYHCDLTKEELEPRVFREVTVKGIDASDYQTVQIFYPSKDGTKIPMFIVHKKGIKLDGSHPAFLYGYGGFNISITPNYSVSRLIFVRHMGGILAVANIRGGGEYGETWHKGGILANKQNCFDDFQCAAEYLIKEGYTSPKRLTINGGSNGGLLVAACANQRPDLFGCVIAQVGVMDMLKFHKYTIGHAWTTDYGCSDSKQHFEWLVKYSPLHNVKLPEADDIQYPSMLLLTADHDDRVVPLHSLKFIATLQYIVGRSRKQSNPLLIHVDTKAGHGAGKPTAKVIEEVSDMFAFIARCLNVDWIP
# Sequence of DPPIV (P27487 whole entry): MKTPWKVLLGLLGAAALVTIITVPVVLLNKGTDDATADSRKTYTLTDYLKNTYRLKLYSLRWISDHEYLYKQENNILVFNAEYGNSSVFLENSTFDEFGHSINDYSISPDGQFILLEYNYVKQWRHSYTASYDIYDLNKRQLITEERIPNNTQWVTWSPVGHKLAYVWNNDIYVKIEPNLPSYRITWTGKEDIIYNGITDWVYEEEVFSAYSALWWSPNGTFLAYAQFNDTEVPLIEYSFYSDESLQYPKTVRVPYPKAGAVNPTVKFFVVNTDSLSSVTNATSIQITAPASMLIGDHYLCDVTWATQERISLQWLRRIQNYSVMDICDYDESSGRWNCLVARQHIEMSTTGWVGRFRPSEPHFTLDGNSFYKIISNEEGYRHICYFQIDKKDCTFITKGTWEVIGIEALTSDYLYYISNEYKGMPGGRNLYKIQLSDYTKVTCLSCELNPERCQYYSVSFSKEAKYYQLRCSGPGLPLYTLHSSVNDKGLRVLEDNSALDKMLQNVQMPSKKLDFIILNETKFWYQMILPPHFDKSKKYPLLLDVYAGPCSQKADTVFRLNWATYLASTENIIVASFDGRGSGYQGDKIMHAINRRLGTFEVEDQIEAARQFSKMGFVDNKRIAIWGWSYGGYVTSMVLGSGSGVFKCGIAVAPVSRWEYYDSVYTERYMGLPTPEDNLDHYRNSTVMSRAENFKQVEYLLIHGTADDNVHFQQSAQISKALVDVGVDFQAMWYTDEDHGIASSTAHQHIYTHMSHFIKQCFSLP
# Sequence of FAP (Q12884 whole entry): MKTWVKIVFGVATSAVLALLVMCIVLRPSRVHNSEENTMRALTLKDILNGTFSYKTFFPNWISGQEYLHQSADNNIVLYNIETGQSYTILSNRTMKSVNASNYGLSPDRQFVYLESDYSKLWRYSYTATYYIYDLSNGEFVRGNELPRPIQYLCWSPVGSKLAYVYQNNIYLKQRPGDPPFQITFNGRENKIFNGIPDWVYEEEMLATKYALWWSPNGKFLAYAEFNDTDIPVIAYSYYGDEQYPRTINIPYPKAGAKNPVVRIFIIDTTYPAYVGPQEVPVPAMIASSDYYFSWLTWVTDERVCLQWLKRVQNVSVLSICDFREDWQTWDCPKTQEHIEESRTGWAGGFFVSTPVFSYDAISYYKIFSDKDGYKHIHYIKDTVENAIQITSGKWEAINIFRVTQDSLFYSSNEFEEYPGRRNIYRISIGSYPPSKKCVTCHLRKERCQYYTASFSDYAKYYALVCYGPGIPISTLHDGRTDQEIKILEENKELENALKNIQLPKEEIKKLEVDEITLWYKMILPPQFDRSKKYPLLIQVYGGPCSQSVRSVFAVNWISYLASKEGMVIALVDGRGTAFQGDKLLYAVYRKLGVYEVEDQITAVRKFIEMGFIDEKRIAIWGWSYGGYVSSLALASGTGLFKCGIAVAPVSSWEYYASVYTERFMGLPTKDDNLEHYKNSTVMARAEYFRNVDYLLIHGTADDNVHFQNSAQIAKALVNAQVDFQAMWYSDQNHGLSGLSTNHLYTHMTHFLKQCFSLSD
smiles,measurement,setting,value
N#C[C@@H]1CCCN1C(=O)CNC(=O)c1ccnc2ccc(OCCCNC(=O)CCc3cn(CCOCCOCCOCCOCCOCCOCCC(=O)N[C@@H](CCCCNC(=O)CN4CCN(CC(=O)O)CCN(CC(=O)O)CC4)C(=O)NCCCCC(=O)N(CCCC[C@H](NC(=O)N[C@@H](CCC(=O)O)C(=O)O)C(=O)O)Cc4ccc(Br)cc4)nn3)cc12,Biodistribution: Blood,"SK-MEL-24 tumor; 1 h, n=3",9.73 ± 0.29
same,Biodistribution: Bone,"SK-MEL-24 tumor; 1 h, n=3",6.00 ± 0.27
same,Biodistribution: Fat,"SK-MEL-24 tumor; 1 h, n=3",0.80 ± 0.31
same,Biodistribution: Heart,"SK-MEL-24 tumor; 1 h, n=3",4.36 ± 0.23
same,Biodistribution: Kidney,"SK-MEL-24 tumor; 1 h, n=3",8.08 ± 1.48
same,Biodistribution: Liver,"SK-MEL-24 tumor; 1 h, n=3",5.30 ± 0.77
same,Biodistribution: Lung,"SK-MEL-24 tumor; 1 h, n=3",7.30 ± 1.16
same,Biodistribution: Muscle,"SK-MEL-24 tumor; 1 h, n=3",2.99 ± 0.18
same,Biodistribution: Panc,"SK-MEL-24 tumor; 1 h, n=3",9.98 ± 0.99
same,Biodistribution: SKMEL24,"SK-MEL-24 tumor; 1 h, n=3",13.25 ± 1.32
same,Biodistribution: Sm in,"SK-MEL-24 tumor; 1 h, n=3",6.52 ± 0.85
same,Biodistribution: Spleen,"SK-MEL-24 tumor; 1 h, n=3",3.06 ± 0.46
same,Biodistribution: Stomach,"SK-MEL-24 tumor; 1 h, n=3",3.29 ± 1.04
same,Biodistribution: Bladder,"SK-MEL-24 tumor; 2 h, n=4",4.76 ± 2.68
same,Biodistribution: Blood,"SK-MEL-24 tumor; 2 h, n=4",6.36 ± 0.89
same,Biodistribution: Bone,"SK-MEL-24 tumor; 2 h, n=4",5.61 ± 1.73
same,Biodistribution: Fat,"SK-MEL-24 tumor; 2 h, n=4",0.91 ± 0.83
same,Biodistribution: Heart,"SK-MEL-24 tumor; 2 h, n=4",2.92 ± 0.27
same,Biodistribution: Kidney,"SK-MEL-24 tumor; 2 h, n=4",8.05 ± 1.27
same,Biodistribution: Liver,"SK-MEL-24 tumor; 2 h, n=4",5.82 ± 0.72
same,Biodistribution: Lung,"SK-MEL-24 tumor; 2 h, n=4",5.76 ± 0.57
same,Biodistribution: Muscle,"SK-MEL-24 tumor; 2 h, n=4",2.24 ± 0.42
same,Biodistribution: Panc,"SK-MEL-24 tumor; 2 h, n=4",6.66 ± 0.38
same,Biodistribution: SKMEL24,"SK-MEL-24 tumor; 2 h, n=4",12.48 ± 1.03
same,Biodistribution: Sm in,"SK-MEL-24 tumor; 2 h, n=4",5.44 ± 1.52
same,Biodistribution: Spleen,"SK-MEL-24 tumor; 2 h, n=4",2.56 ± 0.40
same,Biodistribution: Stomach,"SK-MEL-24 tumor; 2 h, n=4",3.20 ± 0.85
same,Biodistribution: Bladder,"SK-MEL-24 tumor; 4 h, n=4",4.63 ± 1.72
same,Biodistribution: Blood,"SK-MEL-24 tumor; 4 h, n=4",3.29 ± 0.07
same,Biodistribution: Bone,"SK-MEL-24 tumor; 4 h, n=4",3.42 ± 0.92
same,Biodistribution: Fat,"SK-MEL-24 tumor; 4 h, n=4",0.49 ± 0.14
same,Biodistribution: Heart,"SK-MEL-24 tumor; 4 h, n=4",1.87 ± 0.26
same,Biodistribution: Kidney,"SK-MEL-24 tumor; 4 h, n=4",7.26 ± 3.43
same,Biodistribution: Liver,"SK-MEL-24 tumor; 4 h, n=4",6.03 ± 1.00
same,Biodistribution: Lung,"SK-MEL-24 tumor; 4 h, n=4",4.55 ± 0.51
same,Biodistribution: Muscle,"SK-MEL-24 tumor; 4 h, n=4",1.32 ± 0.22
same,Biodistribution: Panc,"SK-MEL-24 tumor; 4 h, n=4",4.48 ± 0.88
same,Biodistribution: SKMEL24,"SK-MEL-24 tumor; 4 h, n=4",9.82 ± 3.39
same,Biodistribution: Spleen,"SK-MEL-24 tumor; 4 h, n=4",2.69 ± 0.44
same,Biodistribution: Stomach,"SK-MEL-24 tumor; 4 h, n=4",2.23 ± 0.58
same,tissue uptake at 1 h,"[1]; bladder, read-out: Biodistribution: Bladder",3.53 ± 0.52 %ID/g
same,tissue uptake at 1 h,"[1]; lacrimal gland, read-out: Biodistribution: Lac gl",9.2 ± 1.74 %ID/g
same,tissue uptake at 2 h,"[1]; lacrimal gland, 2 h, n=4, read-out: Biodistribution: Lac gl",7 ± 2.22 %ID/g
same,tissue uptake at 4 h,"[1]; lacrimal gland, n=4, read-out: Biodistribution: Lac gl",3.01 ± 1.94 %ID/g
same,tissue uptake at 1 h,"[1]; salivary gland, read-out: Biodistribution: Sal gl",12.6 ± 2.46 %ID/g
same,tissue uptake at 4 h,"[1]; salivary gland, n=4, read-out: Biodistribution: Sal gl",4.47 ± 0.89 %ID/g
same,tissue uptake at 4 h,"[1]; small intestine, n=4, read-out: Biodistribution: Sm in",3.54 ± 0.57 %ID/g
N#C[C@@H]1CCCN1C(=O)CNC(=O)c1ccnc2ccc(OCCCNC(=O)CCc3cn(CCOCCOCCOCCC(=O)N[C@@H](CCCCNC(=O)CN4CCN(CC(=O)O)CCN(CC(=O)O)CC4)C(=O)NCCCCC(=O)N(CCCC[C@H](NC(=O)N[C@@H](CCC(=O)O)C(=O)O)C(=O)O)Cc4ccc(Br)cc4)nn3)cc12 [SB-FAP-02],Ki,PREP,116 µM
same,IC50,PREP,580 nM
same,IC50,FAP; Table 4,1.53 nM
same,Ki,"FAP; Table 4, read-out: FAP Ki",0.31 nM
same,Ki,FAP; read-out: FAP Ki,0.31 nM
same,Ki,DPPIV,1760 nM
same,IC50,DPPIV,8.81 µM
same,Biodistribution: Blood,MDA-MB-231; At 1 h nude mice,8.47 ± 0.16
same,Biodistribution: Bone,MDA-MB-231; At 1 h nude mice,3.34 ± 0.32
same,Biodistribution: Fat,MDA-MB-231; At 1 h nude mice,0.61 ± 0.31
same,Biodistribution: Heart,MDA-MB-231; At 1 h nude mice,3.46 ± 0.07
same,Biodistribution: Kidney,MDA-MB-231; At 1 h nude mice,12.14 ± 1.39
same,Biodistribution: Lacrimal gland,MDA-MB-231; At 1 h nude mice,6.61 ± 1.23
same,Biodistribution: Liver,MDA-MB-231; At 1 h nude mice,6.74 ± 0.16
same,Biodistribution: Lung,MDA-MB-231; At 1 h nude mice,5.16 ± 0.04
same,Biodistribution: MDA-MB-231,MDA-MB-231; At 1 h nude mice,3.60 ± 0.32
same,Biodistribution: Muscle,MDA-MB-231; At 1 h nude mice,1.59 ± 0.07
same,Biodistribution: Pancreas,MDA-MB-231; At 1 h nude mice,4.95 ± 0.24
same,Biodistribution: Salivary Gland,MDA-MB-231; At 1 h nude mice,7.75 ± 0.99
same,Biodistribution: Small Intestine,MDA-MB-231; At 1 h nude mice,6.69 ± 0.82
same,Biodistribution: Spleen,MDA-MB-231; At 1 h nude mice,2.38 ± 0.04
same,Biodistribution: Stomach,MDA-MB-231; At 1 h nude mice,2.72 ± 0.30
same,Biodistribution: Bladder,MDA-MB-231; At 2 h NSG mice,1.82 ± 0.26
same,IC50,PSMA; Table 4,90 nM
same,Ki,"PSMA; Table 4, read-out: PSMA Ki",18.1 nM
same,Ki,PSMA; read-out: PSMA Ki,18.1 nM
same,"PSMA binding affinity, fold lower than FP-L2",PSMA; relative to FP-L2,2 fold
"N#C[C@@H]1CCCN1C(=O)CNC(=O)c1ccnc2ccc(OCCCNC(=O)CCc3cn(CCOCCOCCOCCC(=O)N[C@@H](CCCCNC(=O)CN4CCN(CC(=O)O)CCN(CC(=O)O)CCN(CC(=O)O)CC4)C(=O)NCCCCC(=O)N(CCCC[C@H](NC(=O)N[C@@H](CCC(=O)O)C(=O)O)C(=O)O)Cc4ccc(Br)cc4)nn3)cc12 [SB-FAP-01, (14S,27S,31S)-22-(4-bromobenzyl)-1-(4-(3-((3-((4-((2-((S)-2-cyanopyrrolidin-1-yl)-2-oxoethyl)carbamoyl)quinolin-6-yl)oxy)propyl)amino)-3-oxopropyl)-1H-1,2,3-triazol-1-yl)-12,15,21,29-tetraoxo-14-(4-(2-(4,7,10-tris(carboxymethyl)-1,4,7,10-tetraazacyclododecan-1-yl)acetamido)butyl)-3,6,9-trioxa-13,16,22,28,30-pentaazatritriacontane-27,31,33-tricarboxylic acid]",IC50,PREP,350 nM
same,PET/CT tumor imaging,FAP+ HT-1080 tumors,"able to image tumors derived from FAP+ HT-1080 human fibrosis cells engineered to overexpressed FAP, but not those which are not"
same,Ki,"FAP; 95% CI, read-out: FAP Binding affinity Ki (95% CI)",0.25 to 0.51 nM
same,IC50,FAP; Table 4,1.79 nM
same,Ki,"FAP; Table 4, read-out: FAP Ki",0.36 nM
same,Ki,FAP; read-out: FAP Binding affinity Ki,0.36 nM
same,IC50,DPPIV,16.9 µM
same,Ki,"PSMA; 95% CI, read-out: PSMA Binding affinity Ki (95% CI)",7.3 to 37.9 nM
same,IC50,PSMA; Table 4,83.2 nM
same,Ki,"PSMA; Table 4, read-out: PSMA Ki",16.6 nM
same,Ki,PSMA; read-out: PSMA Binding affinity Ki,16.6 nM
